Results as given in patent US10464926B2, “Heterobicyclic compounds and their use for the treatment of tuberculosis” (OTSUKA PHARMACEUTICAL CO., LTD., priority 2014, dated 2019).

Test system: Mycobacterium tuberculosis (M. tuberculosis Kurono)
Test: Antibacterial test (agar dilution method), M. tuberculosis Kurono
Assay type: cell-based
Details: 7H11 agar medium, about 10^6 CFU/mL, 37° C. for 14 days; for MIC: Mycobacterium tuberculosis, 336 h, read-out: Minimum inhibitory concentration (MIC) kurono

Compound	MIC [µg/mL]	Minimum inhibitory concentration (MIC) kurono [µg/mL]
O=C1CCc2c(OCC3(O)CCN(c4ccc(Cl)cc4)CC3)ccc(F)c2N1 [Example 49, 5-{[1-(4-Chlorophenyl)-4-hydroxypiperidin-4-yl]methoxy}-8-fluoro-3,4-dihydroquinolin-2(1H)-one]	< 0.39	
O=C1CCc2c(OC[C@@]3(O)CCN(c4ncc(Cl)cc4Cl)C[C@@H]3O)ccc(F)c2N1 [Example 252, 5-{[(3S,4S)-1-(3,5-Dichloropyridin-2-yl)-3,4-dihydroxypiperidin-4-yl]methoxy}-8-fluoro-3,4-dihydroquinolin-2(1H)-one]	< 0.39	
O=C1CCc2c(OC[C@]3(O)CCN(c4c(F)cc(Cl)cc4F)C[C@@H]3O)ccc(F)c2N1 [Example 361, 5-{[(3S,4R)-1-(4-Chloro-2,6-difluorophenyl)-3,4-dihydroxypiperidin-4-yl]methoxy}-8-fluoro-3,4-dihydroquinolin-2(1H)-one]	< 0.39	
O=C1CCc2c(OCC3(O)CCN(c4c(F)cc(F)cc4F)CC3)cc(F)c(Cl)c2N1 [Example 214, 8-Chloro-7-fluoro-5-{[4-hydroxy-1-(2,4,6-trifluorophenyl)piperidin-4-yl]methoxy}-3,4-dihydroquinolin-2(1H)-one]	< 0.39	
O=C1CCc2c(OCC3(O)CCC(O)(c4ccc(Cl)cc4F)CC3)ccc(F)c2N1 (stereo not drawn) [Example 465, 5-{[trans-4-(4-Chloro-2-fluorophenyl)-1,4-dihydroxycyclohexyl]methoxy}-8-fluoro-3,4-dihydroquinolin-2(1H)-one]		<0.39
CC(=O)O[C@@H]1CN(c2ccc(Cl)cc2F)CC[C@@]1(O)COc1ccc(F)c2c1CCC(=O)N2 [Example 454, (3R,4R)-1-(4-Chloro-2-fluorophenyl)-4-{[(8-fluoro-2-oxo-1,2,3,4-tetrahydroquinolin-5-yl)oxy]methyl}-4-hydroxypiperidin-3-yl acetate]	< 0.39	
O=C1CCc2c(OC[C@H]3CCN(c4ccc(Cl)cc4F)C[C@@H]3O)ccc(F)c2N1 (relative stereo) [Example 419, 5-{[(3R*,4R*)-1-(4-Chloro-2-fluorophenyl)-3-hydroxypiperidin-4-yl]methoxy}-8-fluoro-3,4-dihydroquinolin-2(1H)-one]	< 0.39	
O=C1CCc2c(cc(F)cc2OCC2(O)CCN(c3ccc(Cl)cc3F)CC2)N1 [Example 194, 5-{[1-(4-Chloro-2-fluorophenyl)-4-hydroxypiperidin-4-yl]methoxy}-7-fluoro-3,4-dihydroquinolin-2(1H)-one]	< 0.39	
N#CC1(c2ccc(Cl)cc2F)CCC(O)(COc2ccc(F)c3c2CCC(=O)N3)CC1 (stereo not drawn) [Example 476, trans-1-(4-Chloro-2-fluorophenyl)-4-{[(8-fluoro-2-oxo-1,2,3,4-tetrahydroquinolin-5-yl)oxy]methyl}-4-hydroxycyclohexanecarbonitrile]		<0.39
CCOC(=O)O[C@@H]1CN(c2c(F)cc(Cl)cc2F)CC[C@@]1(O)COc1ccc(F)c2c1CCC(=O)N2 [Example 450, (3R,4R)-1-(4-chloro-2,6-difluorophenyl)-4-{[(8-fluoro-2-oxo-1,2,3,4-tetrahydroquinolin-5-yl)oxy]methyl}-4-hydroxypiperidin-3-yl ethyl carbonate]	< 0.39	
O=C1CCc2c(OC[C@]3(O)CC[C@@](O)(c4ccc(Cl)cc4F)C[C@H]3O)ccc(F)c2N1 (relative stereo) [Example 473, 5-{[(1R*,2R*,4S*)-4-(4-Chloro-2-fluorophenyl)-1,2,4-trihydroxycyclohexyl]methoxy}-8-fluoro-3,4-dihydroquinolin-2(1H)-one]	< 0.39	
O=C1CCc2c(OC[C@]3(O)CCN(c4nc5ccc(Cl)cc5cc4Br)C[C@H]3O)ccc(F)c2N1 [Example 288, 5-{[(3R,4R)-1-(3-Bromo-6-chloroquinolin-2-yl)-3,4-dihydroxypiperidin-4-yl]methoxy}-8-fluoro-3,4-dihydroquinolin-2(1H)-one]	< 0.39	
NC1(COc2ccc(Cl)c3[nH]c(=O)ccc23)CCN(c2ccc(Cl)cc2F)CC1 [Example 17, 5-{[4-Amino-1-(4-chloro-2-fluorophenyl)piperidin-4-yl]methoxy}-8-chloroquinolin-2(1H)-one]	< 0.39	
